This passage reports IC50 results from publication PMC6271714, “Hypotensive Effects and Angiotensin-Converting Enzyme Inhibitory Peptides of Reishi (Ganoderma lingzhi) Auto-Digested Extract” (Molecules, 2014).

Where a SMILES comes first, the peptide text is derived from it. Some results are limits rather than exact numbers.

In the test the target is T1, Angiotensin-Converting Enzyme (ACE) (Homo sapiens, UniProt P12821).
T1 construct: purchased Dojindo Laboratories ACE Kit-WST A502
T1 sequence (P12821 30-1306, species assumed): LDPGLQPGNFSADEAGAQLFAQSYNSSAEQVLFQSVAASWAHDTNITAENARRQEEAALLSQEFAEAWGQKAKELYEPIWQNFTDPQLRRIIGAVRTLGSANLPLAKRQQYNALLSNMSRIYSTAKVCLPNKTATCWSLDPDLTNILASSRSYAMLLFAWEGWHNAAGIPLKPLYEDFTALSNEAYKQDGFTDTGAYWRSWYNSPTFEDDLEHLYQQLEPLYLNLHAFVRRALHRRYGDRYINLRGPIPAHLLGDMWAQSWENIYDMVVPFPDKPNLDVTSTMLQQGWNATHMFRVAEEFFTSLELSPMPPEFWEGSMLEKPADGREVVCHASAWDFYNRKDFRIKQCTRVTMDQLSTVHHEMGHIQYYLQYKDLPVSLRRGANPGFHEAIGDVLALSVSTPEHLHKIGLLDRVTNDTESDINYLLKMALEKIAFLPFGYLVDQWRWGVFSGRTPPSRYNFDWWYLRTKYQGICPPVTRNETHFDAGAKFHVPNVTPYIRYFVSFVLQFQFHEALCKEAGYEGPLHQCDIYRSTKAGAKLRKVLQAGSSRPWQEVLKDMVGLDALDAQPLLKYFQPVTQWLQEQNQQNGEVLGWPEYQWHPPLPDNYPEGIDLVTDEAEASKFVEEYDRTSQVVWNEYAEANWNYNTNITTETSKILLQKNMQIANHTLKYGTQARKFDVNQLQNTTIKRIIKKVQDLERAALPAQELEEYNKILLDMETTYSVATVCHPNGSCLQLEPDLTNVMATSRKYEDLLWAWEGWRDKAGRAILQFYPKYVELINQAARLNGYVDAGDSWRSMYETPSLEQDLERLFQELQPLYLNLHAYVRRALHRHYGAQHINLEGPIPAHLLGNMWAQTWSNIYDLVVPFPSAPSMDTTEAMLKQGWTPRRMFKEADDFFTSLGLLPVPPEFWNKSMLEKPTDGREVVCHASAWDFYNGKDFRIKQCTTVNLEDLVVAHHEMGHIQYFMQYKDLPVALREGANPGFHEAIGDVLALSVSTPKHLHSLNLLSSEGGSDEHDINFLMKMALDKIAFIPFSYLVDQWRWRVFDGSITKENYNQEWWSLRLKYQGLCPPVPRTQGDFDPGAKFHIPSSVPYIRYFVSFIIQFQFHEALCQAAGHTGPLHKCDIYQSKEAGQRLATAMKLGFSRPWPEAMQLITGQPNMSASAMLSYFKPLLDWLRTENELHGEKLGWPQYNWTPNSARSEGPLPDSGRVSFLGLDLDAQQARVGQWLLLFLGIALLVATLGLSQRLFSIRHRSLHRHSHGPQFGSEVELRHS
Briefly: ACE inhibition assay (Dojindo ACE Kit-WST A502). Type of test: biochemical. Conditions: synthesized peptides, six concentrations 10 to 100 μg/mL; read-out: IC50 Values (μM), ACE inhibition capacity. As to the method:
Dojindo ACE Kit-WST A502 was used for testing the ACE-inhibitory activity. Principles of the kit were described in details in a previous report. Testing procedures were run strictly according to the manufacturer’s instructions using a 96-well plate, and inhibition rate was calculated based on the comparison of optical absorbance of sample-treated wells (As), control wells (Ac) and blank wells (Ab) as in the equation below. Absorbance was measured at 450 nm using microplate reader-Biotek-ELX800 (BioTek, Winooski, VT, USA): Inhibition rate (%) = [(Ac − As)/(Ac − Ab)]×100 (1)
For the peptides, six different concentrations of each peptide, ranging from 10 to 100 μg/mL, were assayed, and dose-response curves were plotted for the calculation of the IC50 values. IPP has been proven to be an ACE inhibitor [34] and thus was used as positive control (at concentrations ranging from 0.15 to 5 μg/mL).
Broadly, the IC50 is the concentration that inhibits the measured activity by half. With `CC(C)C[C@H](NC(=O)[C@H](C)N)C(=O)O` [Ala-Leu] (H-Ala-Leu-OH), the IC50 was > 200 µM.
The same measure for `C[C@H](N)C(=O)N[C@@H](Cc1ccc(O)cc1)C(=O)O` [Ala-Tyr] (H-Ala-Tyr-OH): 163 µM; for `CC[C@H](C)[C@H](NC(=O)[C@H](CO)NC(=O)[C@@H](N)CC(N)=O)C(=O)O` [Asn-Ser-Ile] (H-Asn-Ser-Ile-OH): 342 µM; for `CC(C)C[C@H](NC(=O)[C@@H]1CCCN1C(=O)CN)C(=O)O` [Gly-Pro-Leu] (H-Gly-Pro-Leu-OH): > 500 µM.
The same measure for `CC[C@H](C)[C@H](N)C(=O)N[C@@H](CCCNC(=N)N)C(=O)O` [Ile-Arg]: 73.7 µM; for `CC[C@H](C)[C@H](N)C(=O)N1CCC[C@H]1C(=O)N[C@H](C(=O)O)[C@@H](C)O` [Ile-Pro-Thr] (H-Ile-Pro-Thr-OH): 73.1 µM.
Take `CC(C)[C@H](NC(=O)[C@@H](N)CCCCN)C(=O)N1CCC[C@H]1C(=O)O` [Lys-Val-Pro] (H-Lys-Val-Pro-OH): the IC50 was > 500 µM.
The same measure for `CC[C@H](C)[C@H](NC(=O)[C@@H](N)CO)C(=O)O` [Ser-Ile] (H-Ser-Ile-OH): > 200 µM.
The same measure for `CC(C)C[C@H](NC(=O)[C@@H](N)CO)C(=O)O` [Ser-Leu] (H-Ser-Leu-OH; N-terminus and C-terminus assumed): > 200 µM.
The same measure for `N[C@@H](CO)C(=O)N[C@@H](Cc1ccc(O)cc1)C(=O)O` [Ser-Tyr] (H-Ser-Tyr-OH): 94.7 µM; for `CC(C)C[C@H](NC(=O)[C@@H](N)[C@@H](C)O)C(=O)O` [Thr-Leu] (H-Thr-Leu-OH): > 200 µM.
